Laboratory results taken from US20040254213A1, “Use of bicyclo compounds for treating alzheimer's disease” (priority 2001, published 2004).

First: CC(C)CN1CC2(Cc3ccccc3)CC(=O)CC(C(O)Cc3ccccc3)(C1)C2O (racemic) [Compound 16, 5(RS)-methylphenyl-9(RS)-hydroxy-1(RS)-((1′-hydroxy)-2′-phenyl)-ethyl-3-(2″-methyl)propyl-3-azabicyclo[3.3.1] nonan-7-one]
Second: CC(C)CN1CC2(Cc3ccccc3)CC(=O)CC([C@@H](O)Cc3ccccc3N)(C1)C2O (mixture of isomers) [Compound 20]
The melting point of the first is lower: 138 to 141 °C for the first, 164 to 165 °C for the second.

`O=C1CC2(Cc3ccccc3)CN(Cc3ccccc3)CC([C@@H](O)Cc3ccccc3)(C1)C2O` (mixture of isomers) [Compound 18, 5(RS)-methylpheny-9(RS)-hydroxy-1(RS)-((1′-hydroxy)-2′-phenyl)-ethyl-3-benzyl-3-azabicyclo[3.3.1]nonan-7-one] showed a melting point of 145.5 to 147 °C.
